Results reported in patent US12516056B2, “Compounds for inhibition of janus kinase 1” (MANKIND PHARMA LTD., priority 2019, dated 2026).
One block for each compound: values may come before it.

Experiments:
[1] = test system: STAT3 phosphorylation by IL-6 in TF-1 cells; assay: JAK cellular assay: STAT3 phosphorylation by IL-6 in TF-1 cells (HTRF); format: cell-based; conditions: Homo sapiens, TF-1, TF-1 cells, IL-6 30 ng/ml, pSTAT3 HTRF; read-out: Cell Based Assay (μM) TF-1/IL-6/pSTAT3
How it was run: (§1)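 Phospho-STAT3 (IL-6, 30 ng/ml) and phospho-STAT5 (GMCSF, 5 ng/ml) read by HTRF in lysates after 20 min cytokine exposure, minus unstimulated-cell background. Cells were serum-starved overnight, plated at 120,000/well, given compound 30 min at 37 °C beforehand; DMSO 0.2% final.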

[2] = target: T1, Recombinant JAK3 (Homo sapiens, UniProt P52333); assay: JAK biochemical assay (LANCE Ultra TR-FRET), JAK3; conditions: recombinant JAK3, TR-FRET; read-out: Biochemical Assay (μM) JAK3
T1 construct: purchased Carna Biosciences
T1 sequence (P52333 1-1124): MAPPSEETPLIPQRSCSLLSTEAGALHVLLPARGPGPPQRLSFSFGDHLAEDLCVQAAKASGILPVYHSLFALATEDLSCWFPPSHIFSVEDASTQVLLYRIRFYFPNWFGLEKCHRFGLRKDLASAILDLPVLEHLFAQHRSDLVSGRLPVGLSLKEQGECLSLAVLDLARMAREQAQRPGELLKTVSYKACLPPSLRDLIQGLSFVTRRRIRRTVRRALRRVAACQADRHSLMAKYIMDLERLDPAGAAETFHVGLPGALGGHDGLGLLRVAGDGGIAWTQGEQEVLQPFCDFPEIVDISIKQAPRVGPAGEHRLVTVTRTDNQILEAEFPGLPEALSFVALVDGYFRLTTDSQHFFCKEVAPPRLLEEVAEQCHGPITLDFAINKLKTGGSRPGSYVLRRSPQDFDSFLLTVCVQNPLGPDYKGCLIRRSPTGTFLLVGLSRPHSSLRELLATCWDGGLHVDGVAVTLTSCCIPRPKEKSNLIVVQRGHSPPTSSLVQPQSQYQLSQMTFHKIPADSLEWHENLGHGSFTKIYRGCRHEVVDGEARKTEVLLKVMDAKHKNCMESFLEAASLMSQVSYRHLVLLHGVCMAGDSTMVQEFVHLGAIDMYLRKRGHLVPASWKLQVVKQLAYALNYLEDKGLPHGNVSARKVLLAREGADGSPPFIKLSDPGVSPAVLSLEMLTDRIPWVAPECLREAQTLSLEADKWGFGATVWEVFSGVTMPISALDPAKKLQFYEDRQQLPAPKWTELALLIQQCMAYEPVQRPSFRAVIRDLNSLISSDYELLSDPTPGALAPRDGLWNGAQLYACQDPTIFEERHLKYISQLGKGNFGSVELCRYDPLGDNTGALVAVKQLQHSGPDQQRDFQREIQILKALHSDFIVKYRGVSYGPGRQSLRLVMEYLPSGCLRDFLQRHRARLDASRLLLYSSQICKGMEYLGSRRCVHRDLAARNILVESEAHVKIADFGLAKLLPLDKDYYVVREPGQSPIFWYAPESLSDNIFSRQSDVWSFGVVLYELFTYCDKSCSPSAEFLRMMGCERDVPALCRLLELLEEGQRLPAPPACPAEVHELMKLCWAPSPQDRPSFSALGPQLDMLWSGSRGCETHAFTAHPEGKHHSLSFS
How it was run: (§2)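 Kinase reactions ran in buffer of 50 mM HEPES pH 7.5 with 1 mM EGTA, 10 mM MgCl2, 2 mM DTT and 0.01% Tween-20, using recombinant enzyme. Phosphorylated ULight substrate was detected by TR-FRET, and compound effect expressed as % inhibition against vehicle.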

[3] = target: T2, Recombinant JAK2 (Homo sapiens, UniProt O60674); assay: JAK biochemical assay (LANCE Ultra TR-FRET), JAK2; conditions: recombinant JAK2, TR-FRET; read-out: Biochemical Assay (μM) JAK2
T2 construct: purchased Carna Biosciences
How it was run: as §2

[4] = target: T3, Recombinant TYK2 (Homo sapiens, UniProt P29597); assay: JAK biochemical assay (LANCE Ultra TR-FRET), TYK2; conditions: recombinant TYK2, TR-FRET; read-out: Biochemical Assay (μM) TYK2
T3 construct: purchased Carna Biosciences
How it was run: as §2

[5] = test system: STAT5 phosphorylation by IL-2 in HT-2 cells; assay: STAT5 phosphorylation by IL-2 in HT-2 cells (HTRF); format: cell-based; conditions: HT2, HT-2 cells, IL-2 50 U/ml, pSTAT5 HTRF; read-out: Cell Based Assay (μM) HT-2/IL-2/pSTAT5
Method: HT-2 cells were starved […] in RPMI phenol red with 10% fetal bovine serum for 4 hours in CO2 incubator maintained at 37° c. Compounds were diluted in DMSO and added to 96 well plate containing a final density of 1,20,000 cells per well. Cells and compounds are incubated for 30 minutes in CO2 incubator maintained at 37° C. and final DMSO concentration in cell based assay was 0.2%. Human recombinant cytokine, IL-2 (50 U/ml) was added to the plate containing cells and compound and incubated for 20 minutes with gentle tapping/shaking at every 5 minutes once. Compound mediated effects on STAT5 phosphorylation was measured in the lysates prepared by using CISBIO pSTAT5 detection kit by HTRF method. Background signal obtained from cells which were not activated with cytokines, was subtracted from vehicle controls and compound treated wells.

[6] = target: T4, Recombinant JAK1 (Homo sapiens, UniProt P23458); assay: JAK biochemical assay (LANCE Ultra TR-FRET), JAK1; conditions: recombinant JAK1, TR-FRET; read-out: Biochemical Assay (μM) JAK1
T4 construct: purchased Carna Biosciences
How it was run: as §2

[7] = test system: STAT5 phosphorylation by GMCSF in TF-1 cells; assay: JAK cellular assay: STAT5 phosphorylation by GMCSF in TF-1 cells (HTRF); format: cell-based; conditions: Homo sapiens; TF-1 cells, GMCSF 5 ng/ml, pSTAT5 HTRF; read-out: Cell Based Assay (μM) TF-1/GMCSF/pSTAT5
How it was run: as §1

T2 sequence (O60674 whole entry): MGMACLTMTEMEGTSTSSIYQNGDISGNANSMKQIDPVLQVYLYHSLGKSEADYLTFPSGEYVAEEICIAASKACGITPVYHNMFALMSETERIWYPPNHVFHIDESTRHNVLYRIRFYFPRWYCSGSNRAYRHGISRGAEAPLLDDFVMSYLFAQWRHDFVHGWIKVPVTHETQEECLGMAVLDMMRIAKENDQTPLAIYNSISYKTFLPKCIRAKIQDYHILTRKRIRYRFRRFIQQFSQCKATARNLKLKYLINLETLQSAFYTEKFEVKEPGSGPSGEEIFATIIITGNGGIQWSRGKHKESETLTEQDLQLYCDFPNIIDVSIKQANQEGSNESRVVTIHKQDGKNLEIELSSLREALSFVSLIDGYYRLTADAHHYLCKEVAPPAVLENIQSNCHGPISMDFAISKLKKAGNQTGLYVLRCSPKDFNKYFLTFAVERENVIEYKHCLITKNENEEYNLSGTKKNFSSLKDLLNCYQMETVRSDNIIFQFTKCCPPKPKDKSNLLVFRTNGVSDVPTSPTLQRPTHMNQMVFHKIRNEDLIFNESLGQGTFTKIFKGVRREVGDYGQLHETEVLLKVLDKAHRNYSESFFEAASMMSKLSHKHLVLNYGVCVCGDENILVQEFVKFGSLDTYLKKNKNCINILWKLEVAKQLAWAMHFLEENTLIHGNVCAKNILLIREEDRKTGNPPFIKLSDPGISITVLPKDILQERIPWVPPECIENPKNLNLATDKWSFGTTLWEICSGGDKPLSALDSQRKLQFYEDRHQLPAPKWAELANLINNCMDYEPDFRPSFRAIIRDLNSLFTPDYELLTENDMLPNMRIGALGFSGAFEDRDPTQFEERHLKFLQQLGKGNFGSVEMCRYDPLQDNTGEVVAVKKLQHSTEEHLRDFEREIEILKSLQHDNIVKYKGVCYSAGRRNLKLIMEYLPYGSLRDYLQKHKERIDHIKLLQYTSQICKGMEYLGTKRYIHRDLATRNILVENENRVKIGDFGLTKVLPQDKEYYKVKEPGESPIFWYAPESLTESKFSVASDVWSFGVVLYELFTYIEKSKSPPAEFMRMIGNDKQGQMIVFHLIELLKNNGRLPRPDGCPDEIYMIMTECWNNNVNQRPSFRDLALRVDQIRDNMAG
T3 sequence (P29597 whole entry): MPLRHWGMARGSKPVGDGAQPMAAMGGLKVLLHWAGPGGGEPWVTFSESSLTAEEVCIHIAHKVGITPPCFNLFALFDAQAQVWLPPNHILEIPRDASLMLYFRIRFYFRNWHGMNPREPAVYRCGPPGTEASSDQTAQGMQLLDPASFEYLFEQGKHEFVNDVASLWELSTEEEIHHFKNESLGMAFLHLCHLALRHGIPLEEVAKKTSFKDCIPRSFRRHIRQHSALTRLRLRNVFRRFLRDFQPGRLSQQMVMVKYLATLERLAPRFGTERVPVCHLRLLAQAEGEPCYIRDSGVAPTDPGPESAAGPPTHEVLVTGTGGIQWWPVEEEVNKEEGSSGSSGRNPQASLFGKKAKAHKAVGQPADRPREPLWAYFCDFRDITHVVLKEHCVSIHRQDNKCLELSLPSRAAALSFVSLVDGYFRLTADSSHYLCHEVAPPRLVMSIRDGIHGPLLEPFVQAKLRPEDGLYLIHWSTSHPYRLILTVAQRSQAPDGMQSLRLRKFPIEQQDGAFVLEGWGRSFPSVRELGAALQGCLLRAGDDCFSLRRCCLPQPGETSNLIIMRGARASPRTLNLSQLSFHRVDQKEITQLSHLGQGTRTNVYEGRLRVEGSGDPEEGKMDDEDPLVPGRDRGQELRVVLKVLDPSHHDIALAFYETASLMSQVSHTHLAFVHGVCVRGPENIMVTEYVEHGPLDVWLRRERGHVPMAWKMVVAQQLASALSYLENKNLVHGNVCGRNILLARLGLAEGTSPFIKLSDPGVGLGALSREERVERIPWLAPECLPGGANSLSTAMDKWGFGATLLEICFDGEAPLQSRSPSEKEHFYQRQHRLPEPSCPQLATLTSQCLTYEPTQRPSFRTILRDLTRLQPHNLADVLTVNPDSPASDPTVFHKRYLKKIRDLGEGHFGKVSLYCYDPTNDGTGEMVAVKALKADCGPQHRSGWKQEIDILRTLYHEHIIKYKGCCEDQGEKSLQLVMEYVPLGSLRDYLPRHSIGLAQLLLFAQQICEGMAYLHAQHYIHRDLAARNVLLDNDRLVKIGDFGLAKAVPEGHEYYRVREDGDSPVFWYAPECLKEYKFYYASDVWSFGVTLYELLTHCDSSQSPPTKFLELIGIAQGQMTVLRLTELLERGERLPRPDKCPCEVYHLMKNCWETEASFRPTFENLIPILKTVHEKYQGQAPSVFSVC
T4 sequence (P23458 whole entry): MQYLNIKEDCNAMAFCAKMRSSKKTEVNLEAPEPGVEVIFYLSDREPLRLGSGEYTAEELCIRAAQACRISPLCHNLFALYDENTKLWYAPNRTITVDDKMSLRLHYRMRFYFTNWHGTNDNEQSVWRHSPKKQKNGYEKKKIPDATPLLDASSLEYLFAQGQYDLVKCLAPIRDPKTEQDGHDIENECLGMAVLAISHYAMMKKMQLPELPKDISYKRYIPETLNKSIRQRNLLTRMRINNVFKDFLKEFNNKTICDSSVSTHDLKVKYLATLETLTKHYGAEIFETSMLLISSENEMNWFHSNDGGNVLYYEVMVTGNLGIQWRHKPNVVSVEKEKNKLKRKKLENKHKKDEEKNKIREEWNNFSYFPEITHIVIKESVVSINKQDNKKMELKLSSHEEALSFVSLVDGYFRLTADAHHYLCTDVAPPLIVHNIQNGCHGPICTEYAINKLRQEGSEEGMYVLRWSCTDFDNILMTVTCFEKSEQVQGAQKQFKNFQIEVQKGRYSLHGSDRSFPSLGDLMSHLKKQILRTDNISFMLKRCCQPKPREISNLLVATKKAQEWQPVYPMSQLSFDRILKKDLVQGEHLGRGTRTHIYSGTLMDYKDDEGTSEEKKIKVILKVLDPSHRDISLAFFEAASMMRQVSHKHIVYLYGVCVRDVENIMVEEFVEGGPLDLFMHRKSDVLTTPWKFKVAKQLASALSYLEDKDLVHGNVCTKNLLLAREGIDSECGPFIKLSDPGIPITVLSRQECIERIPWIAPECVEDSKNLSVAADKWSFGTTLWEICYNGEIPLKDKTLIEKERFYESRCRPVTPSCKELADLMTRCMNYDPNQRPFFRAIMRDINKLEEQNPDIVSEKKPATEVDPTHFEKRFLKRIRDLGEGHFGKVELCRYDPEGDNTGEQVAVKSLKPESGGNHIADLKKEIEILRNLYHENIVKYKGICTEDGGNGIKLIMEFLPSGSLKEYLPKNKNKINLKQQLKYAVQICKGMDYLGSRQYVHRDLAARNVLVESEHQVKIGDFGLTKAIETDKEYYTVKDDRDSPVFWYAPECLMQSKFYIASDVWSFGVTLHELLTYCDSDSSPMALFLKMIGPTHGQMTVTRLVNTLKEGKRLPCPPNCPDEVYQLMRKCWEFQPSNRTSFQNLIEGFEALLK

- IC50 [1]: > 1 µM
- IC50 [2]: > 0.03 µM
- IC50 [3]: > 0.03 µM
- IC50 [4]: > 0.1 µM
- IC50 [5]: > 0.75 µM
SMILES: CC(=O)N1CC(C(O)(c2ccc(-n3cc(-c4ccnc5[nH]cnc45)cn3)nc2)C(F)(F)F)C1 (centres unmarked) [Example 1236, 1-(3-(1-(6-(4-(3H-imidazo[4,5-b]pyridin-7-yl)-1H-pyrazol-1-yl)pyridin-3-yl)-2,2,2-trifluoro-1-hydroxyethyl)azetidin-1-yl)ethanone]

- IC50 [6]: < 0.1 µM
- IC50 [1]: > 1 µM
- IC50 [2]: > 0.5 µM
- IC50 [3]: > 0.5 µM
- IC50 [4]: > 1 µM
- IC50 [7]: > 10 µM
SMILES: CC(F)(c1ccc(-n2cc(-c3ccnc4[nH]cnc34)cn2)nc1)C(F)(F)F (centres unmarked) [Example 1128, 7-(1-(5-(1,1,1,2-tetrafluoropropan-2-yl)pyridin-2-yl)-1H-pyrazol-4-yl)-3H-imidazo[4,5-b]pyridine]

- IC50 [6]: > 1 µM
- IC50 [1]: > 10 µM
- IC50 [2]: > 1 µM
- IC50 [3]: > 1 µM
- IC50 [4]: > 1 µM
- IC50 [7]: > 10 µM
SMILES: COC(c1cccc(-n2cc(-c3ccnc4[nH]cnc34)cn2)n1)C(F)(F)F (centres unmarked) [Example 1171, 7-(1-(6-(2,2,2-trifluoro-1-methoxyethyl)pyridin-2-yl)-1H-pyrazol-4-yl)-3H-imidazo[4,5-b]pyridine]

- IC50 [6]: < 0.1 µM
- IC50 [1]: > 1 µM
- IC50 [2]: < 0.1 µM
- IC50 [3]: < 0.1 µM
- IC50 [4]: > 0.5 µM
- IC50 [7]: > 1 µM
SMILES: O=C(C1CC1)N1CCC(C(O)(c2ccc(-n3cc(-c4ccnc5[nH]cnc45)cn3)nc2)C(F)(F)F)CC1 (centres unmarked) [Example 1220, (4-(1-(6-(4-(3H-imidazo[4,5-b]pyridin-7-yl)-1H-pyrazol-1-yl)pyridin-3-yl)-2,2,2-trifluoro-1-hydroxyethyl)piperidin-1-yl)(cyclopropyl)methanone]

- IC50 [6]: > 0.1 µM
- IC50 [1]: > 1 µM
- IC50 [2]: > 0.1 µM
- IC50 [3]: > 0.5 µM
- IC50 [4]: > 1 µM
- IC50 [7]: 10 µM
SMILES: N#CCC(c1ccc(-n2cc(-c3ccnc4[nH]cnc34)cn2)nc1)C(F)(F)F (centres unmarked) [Example 1123, 3-(6-(4-(3H-imidazo[4,5-b]pyridin-7-yl)-1H-pyrazol-1-yl)pyridin-3-yl)-4,4,4-trifluorobutanenitrile]

- IC50 [6]: < 0.1 µM
- IC50 [1]: > 0.5 µM
- IC50 [2]: < 0.1 µM
- IC50 [3]: > 0.5 µM
- IC50 [4]: > 1 µM
- IC50 [7]: > 1 µM
SMILES: FC(F)(F)C(CCN1CCOCC1)c1ccc(-n2cc(-c3ccnc4[nH]cnc34)cn2)nc1 (centres unmarked) [Example 1201, 7-(1-(5-(1,1,1-trifluoro-4-morpholinobutan-2-yl)pyridin-2-yl)-1H-pyrazol-4-yl)-3H-imidazo[4,5-b]pyridine]

- IC50 [6]: 0.096 µM
- IC50 [1]: 10 µM
- IC50 [2]: 0.173 µM
- IC50 [3]: 0.3 µM
- IC50 [4]: > 10 µM
- IC50 [7]: > 10 µM
SMILES: O=C(NCC(F)(F)F)C(c1ccc(-n2cc(-c3ccnc4[nH]cnc34)cn2)nc1)C1CC1 (centres unmarked) [Example 1167, 2-(6-(4-(3H-imidazo[4,5-b]pyridin-7-yl)-1H-pyrazol-1-yl)pyridin-3-yl)-2-cyclopropyl-N-(2,2,2-trifluoroethyl)acetamide]

- IC50 [6]: < 0.1 µM
- IC50 [1]: < 1 µM
- IC50 [2]: < 0.1 µM
- IC50 [3]: < 0.1 µM
- IC50 [4]: > 0.5 µM
- IC50 [7]: > 10 µM
SMILES: N#CCOC(c1ccc(-n2cc(-c3ccnc4[nH]cnc34)cn2)nc1)C(F)(F)F (centres unmarked) [Example 1157, 2-(1-(6-(4-(3H-imidazo[4,5-b]pyridin-7-yl)-1H-pyrazol-1-yl)pyridin-3-yl)-2,2,2-trifluoroethoxy)acetonitrile]

The next lines start with the compound.

SMILES: N#CCC(=O)Nc1ccc(-n2cc(-c3ccnc4[nH]cnc34)cn2)cc1 [Example 1102, N-(4-(4-(3H-imidazo[4,5-b]pyridin-7-yl)-1H-pyrazol-1-yl)phenyl)-2-cyanoacetamide]
- IC50 [6]: < 0.5 µM
- IC50 [1]: > 10 µM
- IC50 [2]: > 0.5 µM
- IC50 [3]: > 0.5 µM
- IC50 [4]: > 1 µM
- IC50 [7]: > 10 µM

SMILES: FC(F)(F)C(Cl)c1ccc(-n2cc(-c3ccnc4[nH]cnc34)cn2)nc1 (centres unmarked) [Example 1120, 7-(1-(5-(1-chloro-2,2,2-trifluoroethyl)pyridin-2-yl)-1H-pyrazol-4-yl)-3H-imidazo[4,5-b]pyridine]
- IC50 [6]: > 0.05 µM
- IC50 [1]: > 1 µM
- IC50 [2]: > 0.1 µM
- IC50 [3]: > 0.1 µM
- IC50 [4]: > 1 µM
- IC50 [7]: > 10 µM

SMILES: CC(NC(=O)Nc1ccc(-c2ccnc3[nH]c(=O)[nH]c23)cc1)C(F)(F)F (centres unmarked) [Example 1002, 1-(1,1,1-trifluoropropan-2-yl)-3-(4-(2,3-dihydro-2-oxo-1H-imidazo[4,5-b]pyridin-7-yl)phenyl)urea]
- IC50 [6]: < 0.5 µM
- IC50 [1]: > 10 µM
- IC50 [2]: < 0.5 µM
- IC50 [3]: < 0.5 µM
- IC50 [4]: > 0.5 µM
- IC50 [7]: > 10 µM

SMILES: CC(C#N)c1ccc(-n2cc(-c3ccnc4[nH]cnc34)cn2)nc1 (centres unmarked) [Example 1107, 2-(6-(4-(3H-imidazo[4,5-b]pyridin-7-yl)-1H-pyrazol-1-yl)pyridin-3-yl)propanenitrile]
- IC50 [6]: < 0.1 µM
- IC50 [1]: > 1 µM
- IC50 [2]: < 0.1 µM
- IC50 [3]: > 0.1 µM
- IC50 [4]: > 1 µM
- IC50 [7]: > 10 µM

SMILES: N#C[C@H](NC(=O)n1cc(-c2ccnc3[nH]c(=O)[nH]c23)cn1)C1CC1 [Example 1054, N-((R)-cyano(cyclopropyl)methyl)-4-(2,3-dihydro-2-oxo-1H-imidazo[4,5-b]pyridin-7-yl)-1H-pyrazole-1-carboxamide]
- IC50 [6]: > 10 µM
- IC50 [1]: > 1 µM
- IC50 [2]: > 1 µM
- IC50 [3]: > 0.5 µM
- IC50 [4]: > 1 µM
- IC50 [7]: 10 µM

SMILES: N#CC(c1ccc(-n2cc(-c3ccnc4[nH]cnc34)cn2)cc1)N1CCOCC1 (centres unmarked) [Example 1101, 2-(4-(4-(3H-imidazo[4,5-b]pyridin-7-yl)-1H-pyrazol-1-yl)phenyl)-2-morpholinoacetonitrile]
- IC50 [6]: > 0.5 µM
- IC50 [1]: > 10 µM
- IC50 [2]: > 1 µM
- IC50 [3]: > 0.5 µM
- IC50 [4]: > 10 µM
- IC50 [7]: > 10 µM

SMILES: N#CC1CCN(C(=O)n2cc(-c3ccnc4[nH]c(=O)[nH]c34)cn2)C1 (centres unmarked) [Example 1055, 1-(4-(2-oxo-2,3-dihydro-1H-imidazo[4,5-b]pyridin-7-yl)-1H-pyrazole-1-carbonyl)pyrrolidine-3-carbonitrile]
- IC50 [6]: > 1 µM
- IC50 [1]: > 10 µM
- IC50 [2]: > 1 µM
- IC50 [3]: < 0.5 µM
- IC50 [4]: > 0.5 µM
- IC50 [7]: > 10 µM

SMILES: CC(CN1CC(C#N)C1)NC(=O)n1cc(-c2ccnc3[nH]cnc23)cn1 (centres unmarked) [Example 1068, N-(1-(3-cyanoazetidin-1-yl)propan-2-yl)-4-(3H-imidazo[4,5-b]pyridin-7-yl)-1H-pyrazole-1-carboxamide]
- IC50 [6]: > 1 µM
- IC50 [1]: > 10 µM
- IC50 [2]: > 1 µM
- IC50 [3]: > 1 µM
- IC50 [4]: > 1 µM
- IC50 [7]: > 10 µM
